Here are results for 3 molecules from paper PMC7587356, “High-Throughput Screening for Inhibitors of the SARS-CoV-2 Protease Using a FRET-Biosensor” (Molecules, 2020).

By EC50 is commonly meant the concentration giving half of the maximal effect.

SMILES strings stand for the structures. Like-named read-outs stand apart in the source and are kept apart here.

Assay [1] has as its target T1, SARS-CoV-2 3CLpro (Severe acute respiratory syndrome coronavirus 2, UniProt P0DTD1). The assay is described as follows: biochemical. It counts as biochemical.
The target of assay [2] is T1, SARS-CoV-2 3CLpro. The assay can be described thus: biochemical. It counts as biochemical. To be noted: sheet LOPAC_screen_w_protease, primary screen at 5 µM; for inhibition at 5 µM: 4 h.
[3] abbreviates: with 0.01% Triton X-100; mean ± SD of triplicate; 4 h, 30 °C; read-out: A) EC50 with Triton X-100.
The mark [4] stands for this setting: without Triton X-100; mean ± SD of triplicate; 4 h, 30 °C; read-out: B) EC50 without Triton X-100.
The mark [5] stands for this setting: mean of two replicates, read-out: mean (LOPAC screen with protease).
[6] abbreviates: replicate 1, read-out: Replicate_1 (LOPAC screen with protease).
The mark [7] stands for this setting: replicate 2, read-out: Replicate_2 (LOPAC screen with protease).

`CCOC(=O)[C@]12CC1/C(=N\O)c1ccccc1O2` (mixture of isomers) [CPCCOEt, reference compound]: the EC50 at SARS-CoV-2 3CLpro [1] (setting [3]) and on SARS-CoV-2 3CLpro [1] (setting [4]) was greater than 20 µM each time. Further, the inhibition at 5 µM was determined as 26.9% on SARS-CoV-2 3CLpro [2] (setting [5]), 0.406% on SARS-CoV-2 3CLpro [2] (setting [6]) and 53.3% on SARS-CoV-2 3CLpro [2] (setting [7]).
`NC(Cc1cc(O)c(O)cc1O)C(=O)O` (racemic) [6-Hydroxy-dl-DOPA, reference compound]: the “Ratio (A/B)” value on SARS-CoV-2 3CLpro [1] (EC50 with Triton X-100 / EC50 without Triton X-100, ratio greater than 2 suggests aggregation-based inhibitor) was 2.0. The EC50 worked out at 1.32 ± 0.118 µM at SARS-CoV-2 3CLpro [1] (setting [3]) and 0.652 ± 0.259 µM on SARS-CoV-2 3CLpro [1] (setting [4]). The “mean (LOPAC screen with protease)” value at SARS-CoV-2 3CLpro [2] (mean of two replicates) was 66.3118. Besides, on SARS-CoV-2 3CLpro [2] (replicate 1), the “Replicate_1 (LOPAC screen with protease)” value came to 69.7112. In addition, the “Replicate_2 (LOPAC screen with protease)” value at SARS-CoV-2 3CLpro [2] (replicate 2) is given as 62.9123.
As to `O=c1oc(Cl)c(Cl)c2ccccc12` [3,4-Dichloroisocoumarin, reference compound], at SARS-CoV-2 3CLpro [1], the “Ratio (A/B)” value turned out to be 1.6. Besides, the EC50 on SARS-CoV-2 3CLpro [1] (setting [3]) was found to be 8.7 ± 2.72 µM; at SARS-CoV-2 3CLpro [1] (setting [4]), 5.38 ± 0.612 µM. The inhibition at 5 µM on SARS-CoV-2 3CLpro [2] (setting [5]) was 30.4%; at SARS-CoV-2 3CLpro [2] (setting [6]), 30.8%; on SARS-CoV-2 3CLpro [2] (setting [7]) it was 30%.
